For data set [1] the following is noted: 4.97 mg dry powder. The protocol: 4.97 mg of L-IND #036752, stored at 4° C. in a desiccation) was weighed into a polypropylene microfuge and dissolved in 0.01% acetic acid.
Data set [2] has as its system Escherichia coli (ATCC 8739). Nature of the data set: Protocol 1 kill curve / MIC, 1 hour at 37° C. It counts as cell-based. Particulars: 6.25 μg/ml, 10 mM sodium phosphate buffer. The protocol: (§1) This protocol is used to develop dose-response (kill) curves to calculate the minimal inhibitory concentration of an indolicidin (e.g., L-indolicidin (L-IND)) when formulated in a commercially available phosphate buffered saline (PBS) solution. In addition, for comparative purposes, kill curves are established for the following three commonly available commercial lens-care products containing different preservatives:
(§2) The stock solutions are diluted in a 2-fold fashion by transferring 1 ml of each stock solution to 1 ml of appropriate diluent in sterile glass tubes (100×13 mm). Twelve additional 2-fold dilutions are made by transferring 1 ml aliquots of each dilution to 1 ml diluent. The diluent for all commercial lens-care products is PBS. […]
(§3) Viable counts of the bacteria are performed by 10-fold serial dilutions in sterile PBS and by plating 0.1 ml aliquots on nutrient agar plates. […] The plates are incubated overnight at 37° C. and colonies are counted and recorded. […]
(§4) Survival is expressed as number of surviving bacteria (CFU/ml) for each dilution of the test article and control solutions. The lowest dose of the test article that results in complete kill of the test organism, compared to the non-exposed control, is determined to be the MIC value. […]

The subject of data set [3] is S. aureus ATCC 6538. Nature of the data set: Protocol 3 time-dependent antimicrobial activity at one dose level. It counts as cell-based, Staphylococcus aureus. Particulars: 50 μg/ml, 10 mM sodium phosphate buffer pH 7.4, 1, 2, 5 and 15 minutes, room temperature. How it is done:
The objective of this protocol is to establish a procedure for determining the antimicrobial activity of indolicidin (e.g., L-IND) at 50 μg/ml over an extended exposure time up to 24 hours at room temperature. It is believed that this procedure more closely mimics the recommended use of lens-care products.
Exposure of the test organism to indolicidin occurs in a buffered solution for up to 24 hours with sampling for viability at different time intervals. Polypropylene 96-well microtiter plates and microcentrifuge tubes are used for exposure and dilution of indolicidin, respectively.
The following materials are used: sterile glass tubes containing 5 ml of Mueller-Hinton Broth (MHB), Mueller-Hinton agar plates, sterile 96-well polypropylene microtiter plates, and sterile polypropylene microcentrifuge tubes.
One or more of the following microorganisms are used in assays using this protocol or modification of this protocol: Pseudomonas aeruginosa (ATCC 9027), Pseudomonas aeruginosa (ATCC 27853), and S. aureus (ATCC 6538).
Five 5 ml of MHB tubes are innoculated with the tester strain(s) from MHA plates and grown overnight at 37° C. on a shaker (180 rpm). […]
Survival is determined by counting the colonies appearing on plates after overnight incubation at 37° C. The results are expressed as CFU/ml and survival is expressed as the percent of the bacteria that survived the treatment. […]

The test system of data set [4] is S. aureus (ATCC 6538). The experiment in a line: Protocol 1 kill curve / MIC, 1 hour at 37° C. The class given is cell-based, Staphylococcus aureus. As to conditions: 10 mM sodium phosphate buffer. How it is done: as §1, §2, §3, §4

This note sets out measurements from patent publication US6482799B1, “Self-preserving multipurpose ophthalmic solutions incorporating a polypeptide antimicrobial” (The Regents of the University of California, priority 1999, dated 2002).

As for `CC[C@H](C)[C@H](N)C(=O)N[C@@H](CC(C)C)C(=O)N1CCC[C@H]1C(=O)N[C@@H](Cc1c[nH]c2ccccc12)C(=O)N[C@@H](CCCCN)C(=O)N[C@@H](Cc1c[nH]c2ccccc12)C(=O)N1CCC[C@H]1C(=O)N[C@@H](Cc1c[nH]c2ccccc12)C(=O)N[C@@H](Cc1c[nH]c2ccccc12)C(=O)N1CCC[C@H]1C(=O)N[C@@H](Cc1c[nH]c2ccccc12)C(=O)N[C@@H](CCCNC(=N)N)C(=O)N[C@@H](CCCNC(=N)N)C(N)=O` [L-indolicidin, H2N-ILPWKWPWWPWRR-CONH2], the “Solubility in 0.01% acetic acid” value in data set [1] is on record as “went into solution immediately”. The survival is on record as 15% in data set [2]; “no survival” in data set [3]; “no detectable survival” in data set [4] (100, 50, 25 and 12.5 μg/ml, 4.1×10^5 CFU/ml). For the same molecule, the log kill in data set [4] (6.25 μg/ml) was around 3 log.
